# Source: US20240150370A1, “BICYCLIC PYRIDINE DERIVATIVE” (Sumitomo Pharma Co., Ltd., priority 0001, published 2024)
# Structures can show the parent of a compound that is named as a salt.
# Assays:
# [1] = biological target: human TAAR1 receptor (Homo sapiens (Human), UniProt Q96RJ0); experiment: Evaluation of agonist activity on human TAAR1 receptor (cAMP assay); format: cell-based; conditions: cAMP in human TAAR1-expressing CHO cells, relative to 100 μM tyramine; for activation at 0.1 µM / activation at 1 µM / activation at 10 µM: CHO, 0.5 h, read-out: TAAR1 agonist activity at each concentration (%)
# Chain of human TAAR1 receptor (Q96RJ0 whole entry, the tested form may be a part): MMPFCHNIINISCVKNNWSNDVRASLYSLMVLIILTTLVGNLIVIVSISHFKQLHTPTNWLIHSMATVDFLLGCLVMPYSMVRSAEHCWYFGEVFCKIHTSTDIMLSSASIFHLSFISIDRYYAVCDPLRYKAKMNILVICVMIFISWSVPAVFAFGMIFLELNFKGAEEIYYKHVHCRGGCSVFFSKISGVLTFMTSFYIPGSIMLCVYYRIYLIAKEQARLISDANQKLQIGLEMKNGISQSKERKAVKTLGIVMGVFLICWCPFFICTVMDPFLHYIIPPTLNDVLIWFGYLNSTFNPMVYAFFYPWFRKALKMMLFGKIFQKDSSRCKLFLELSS
# Protocol: TAAR1 is a G protein-coupled receptor that binds to G proteins (Gas), and activation of the TAAR1 receptor by agonists induces an increase in intracellular cAMP levels. Therefore, the agonist activity of the sample on the human TAAR1 receptor was evaluated using the cAMP assay method.
# cAMP Hunter™ CHO-K1 TAAR1 Gs Cell Line, a cell expressing human TAAR1 receptor, was purchased. Human TAAR1-expressing CHO cells were seeded in a 96-well plate, and after culturing for 24 hours, a sample dissolved in DMSO was added and incubated at 37° C. for 30 minutes. A sample for cAMP measurement was prepared according to the cAMPHiRange kit protocol. The amount of cAMP produced by the sample was measured by time-resolved fluorescence using EnVision (excitation wavelength: 330 nm, fluorescence wavelength […]/665 nm).
# Sample %=100×{(Csamp)−(Cblank)}/{(Ctyramine)−(Cblank)} • Csamp: count of sample, Ctyramine: count of 100 μM tyramine, Cblank: count of blank
# [2] = biological target: hERG channel (Homo sapiens (Human), UniProt Q12809); experiment: Evaluation of hERG channel inhibitory activity (whole-cell patch clamp, hERG-CHO cells); format: cell-based; conditions: autopatch clamp, read-out: hERG inhibition IC50
# Chain of hERG channel (Q12809 whole entry): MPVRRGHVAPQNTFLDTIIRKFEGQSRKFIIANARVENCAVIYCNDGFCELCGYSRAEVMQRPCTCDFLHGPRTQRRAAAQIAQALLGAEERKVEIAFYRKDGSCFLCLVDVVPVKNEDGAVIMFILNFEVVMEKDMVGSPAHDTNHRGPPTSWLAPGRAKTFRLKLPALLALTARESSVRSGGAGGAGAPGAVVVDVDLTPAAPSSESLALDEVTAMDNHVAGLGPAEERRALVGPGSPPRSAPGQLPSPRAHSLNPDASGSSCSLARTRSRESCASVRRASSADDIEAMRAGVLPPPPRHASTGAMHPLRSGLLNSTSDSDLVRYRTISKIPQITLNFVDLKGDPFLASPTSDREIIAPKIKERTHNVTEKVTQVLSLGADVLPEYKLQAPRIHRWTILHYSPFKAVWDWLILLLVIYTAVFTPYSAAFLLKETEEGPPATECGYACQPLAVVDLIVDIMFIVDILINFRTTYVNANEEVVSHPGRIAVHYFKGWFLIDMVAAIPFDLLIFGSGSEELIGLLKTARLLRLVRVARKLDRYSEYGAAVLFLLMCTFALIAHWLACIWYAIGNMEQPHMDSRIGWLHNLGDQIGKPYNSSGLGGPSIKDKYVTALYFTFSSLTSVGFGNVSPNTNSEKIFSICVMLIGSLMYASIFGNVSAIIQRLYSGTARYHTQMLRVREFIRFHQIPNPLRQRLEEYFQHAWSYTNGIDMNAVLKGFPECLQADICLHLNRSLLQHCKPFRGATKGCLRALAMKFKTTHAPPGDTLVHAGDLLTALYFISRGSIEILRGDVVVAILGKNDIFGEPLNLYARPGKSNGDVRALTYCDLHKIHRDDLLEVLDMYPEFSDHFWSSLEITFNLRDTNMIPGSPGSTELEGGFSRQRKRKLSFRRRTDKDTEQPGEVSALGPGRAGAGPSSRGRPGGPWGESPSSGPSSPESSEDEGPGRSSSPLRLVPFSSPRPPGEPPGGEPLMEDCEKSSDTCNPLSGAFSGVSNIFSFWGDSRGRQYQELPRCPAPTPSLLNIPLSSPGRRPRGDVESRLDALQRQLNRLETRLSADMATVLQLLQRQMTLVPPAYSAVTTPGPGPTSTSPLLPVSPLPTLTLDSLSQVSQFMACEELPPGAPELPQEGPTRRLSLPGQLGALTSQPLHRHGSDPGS
compound,measurement,setting,value
CNC[C@H]1c2nc(C)ccc2O[C@@H]1C [Example 48],activation at 0.1 µM,[1]; 100 nM,38%
same,activation at 1 µM,[1]; 1000 nM,74%
same,activation at 10 µM,[1]; 10000 nM,86%
same,IC50,[2],> 100 µM
"C[C@H]1Oc2cccnc2[C@@H]1CN [Example 27, 1-[(2R,3S)-2-methyl-2,3-dihydrofuro[3,2-b]pyridin-3-yl]methanamine dihydrochloride]",activation at 0.1 µM,[1]; 100 nM,40%
same,activation at 1 µM,[1]; 1000 nM,81%
same,activation at 10 µM,[1]; 10000 nM,95%
same,IC50,[2],> 100 µM
Cc1ccc2c(n1)[C@H](CN)C[C@@H](C)O2 [Example 18],activation at 0.1 µM,[1]; 100 nM,29%
same,activation at 1 µM,[1]; 1000 nM,73%
same,activation at 10 µM,[1]; 10000 nM,87%
same,IC50,[2],> 100 µM
"C[C@H]1Oc2cc(Cl)cnc2[C@@H]1CN [Example 37, 1-[(2R,3S)-6-chloro-2-methyl-2,3-dihydrofuro[3,2-b]pyridin-3-yl]methanamine dihydrochloride]",TAAR1 agonist activity at each concentration (%),"[1]; 100 nM, dihydrochloride",13%
same,activation at 1 µM,[1]; 1000 nM,49%
same,activation at 10 µM,[1]; 10000 nM,72%
same,IC50,[2],> 100 µM
C[C@H]1Oc2ccc(F)nc2[C@@H]1CN [Example 29],activation at 0.1 µM,[1]; 100 nM,51%
same,activation at 1 µM,[1]; 1000 nM,93%
same,activation at 10 µM,[1]; 10000 nM,104%
same,IC50,[2],> 100 µM
Cc1cc(C)c2c(n1)[C@H](CN)[C@@H](C)O2 [Example 84],activation at 0.1 µM,[1]; 100 nM,15%
same,activation at 1 µM,[1]; 1000 nM,51%
same,activation at 10 µM,[1]; 10000 nM,79%
same,IC50,[2],> 100 µM
"CNC[C@@H]1C[C@@H](C)Oc2cccnc21 [Example 5, N-methyl-1-[(2R,4S)-2-methyl-3,4-dihydro-2H-pyrano[3,2-b]pyridin-4-yl]methanamine dihydrochloride]",TAAR1 agonist activity at each concentration (%),"[1]; 100 nM, dihydrochloride",24%
same,TAAR1 agonist activity at each concentration (%),"[1]; 1000 nM, dihydrochloride",68%
same,TAAR1 agonist activity at each concentration (%),"[1]; 10000 nM, dihydrochloride",90%
same,IC50,[2],> 100 µM
"CNC[C@H]1c2ncc(F)cc2O[C@@H]1C [Example 49, 1-[(2R,3S)-6-fluoro-2-methyl-2,3-dihydrofuro[3,2-b]pyridin-3-yl]-N-methylmethanamine dihydrobromide]",activation at 0.1 µM,[1]; 100 nM,25%
same,activation at 1 µM,[1]; 1000 nM,63%
same,activation at 10 µM,[1]; 10000 nM,75%
same,IC50,[2],> 100 µM
C[C@@H]1Sc2cccnc2[C@@H]1CN (racemic) [Example 16],activation at 0.1 µM,[1]; 100 nM,6%
same,activation at 1 µM,[1]; 1000 nM,37%
same,activation at 10 µM,[1]; 10000 nM,76%
same,IC50,[2],68.6 µM
"NC[C@H]1CSc2cccnc21 (single isomer, unassigned) [Example 41, dihydrochloride]",activation at 0.1 µM,[1]; 100 nM,12%
same,activation at 1 µM,[1]; 1000 nM,38%
same,activation at 10 µM,[1]; 10000 nM,65%
same,IC50,[2],> 100 µM
Cc1ccc2c(n1)C(CN)C(C)(C)O2 (stereo not shown) [Example 83],activation at 0.1 µM,[1]; 100 nM,59%
same,activation at 1 µM,[1]; 1000 nM,91%
same,activation at 10 µM,[1]; 10000 nM,99%
same,IC50,[2],> 100 µM
"C[C@H]1Oc2ccc(Cl)nc2[C@@H]1CN [Example 38, 1-[(2R,3S)-5-chloro-2-methyl-2,3-dihydrofuro[3,2-b]pyridin-3-yl]methanamine dihydrochloride]",activation at 0.1 µM,[1]; 100 nM,52%
same,activation at 1 µM,[1]; 1000 nM,86%
same,activation at 10 µM,[1]; 10000 nM,93%
same,IC50,[2],> 100 µM
CNC[C@@H]1C[C@@H](C)Oc2ccc(C)nc21 [Example 47],activation at 0.1 µM,[1]; 100 nM,13%
same,activation at 1 µM,[1]; 1000 nM,52%
same,activation at 10 µM,[1]; 10000 nM,84%
same,IC50,[2],> 100 µM
NC[C@@H]1C[C@@H](c2ccccc2)Oc2cccnc21 (racemic) [Example 25],activation at 0.1 µM,[1]; 100 nM,2%
same,activation at 1 µM,[1]; 1000 nM,21%
same,activation at 10 µM,[1]; 10000 nM,63%
same,IC50,[2],5.8 µM
"NC[C@H]1c2ncccc2OC12CC2 (single isomer, unassigned) [Example 97, rel-1-[(3'S)-3′H-spiro[cyclopropane-1,2′-furo[3,2-b]pyridine]-3′-yl]methanamine dihydrochloride]",activation at 0.1 µM,[1]; 100 nM,70%
same,activation at 1 µM,[1]; 1000 nM,101%
same,activation at 10 µM,[1]; 10000 nM,96%
same,IC50,[2],> 100 µM
CC1(C)Oc2cccnc2C1CN (stereo not shown) [Example 23],activation at 0.1 µM,[1]; 100 nM,35%
same,activation at 1 µM,[1]; 1000 nM,74%
same,activation at 10 µM,[1]; 10000 nM,91%
same,IC50,[2],> 100 µM
"NC[C@@H]1c2ncc(Cl)cc2OC12CC2 (single isomer, unassigned) [Example 98, rel-1-[(3′R)-6′-chloro-3′H-spiro[cyclopropane-1,2′-furo[3,2-b]pyridine]-3′-yl]methanamine dihydrochloride]",activation at 0.1 µM,[1]; 100 nM,1%
same,activation at 1 µM,[1]; 1000 nM,9%
same,activation at 10 µM,[1]; 10000 nM,37%
"C[C@@H]1COc2cccnc2[C@@H]1CN (stereo in doubt) [Example 4, rel-1-[(3S,4S)-3-methyl-3,4-dihydro-2H-pyrano[3,2-b]pyridin-4-yl]methanamine dihydrochloride]",activation at 0.1 µM,[1]; 100 nM,17%
same,activation at 1 µM,[1]; 1000 nM,55%
same,activation at 10 µM,[1]; 10000 nM,67%
"C[C@H]1Oc2cccnc2[C@H]1CN (racemic) [Example 36, rac-1-[(2R,3R)-2-methyl-2,3-dihydrofuro[3,2-b]pyridin-3-yl]methanamine dihydrochloride]",activation at 0.1 µM,[1]; 100 nM,0%
same,activation at 1 µM,[1]; 1000 nM,20%
same,activation at 10 µM,[1]; 10000 nM,67%
CNCC1CC(C)c2cccnc21 (stereo not shown) [Example 78],activation at 0.1 µM,[1]; 100 nM,0%
same,activation at 1 µM,[1]; 1000 nM,5%
same,activation at 10 µM,[1]; 10000 nM,27%
"NC[C@@H]1c2ncccc2OC12CC2 (single isomer, unassigned) [Example 96, rel-1-[(3′R)-3′H-spiro[cyclopropane-1,2′-furo[3,2-b]pyridine]-3′-yl]methanamine dihydrochloride]",activation at 0.1 µM,[1]; 100 nM,3%
same,activation at 1 µM,[1]; 1000 nM,28%
same,activation at 10 µM,[1]; 10000 nM,66%
NCC1CCOc2ccc(C(F)(F)F)nc21 (stereo not shown) [Example 67],activation at 0.1 µM,[1]; 100 nM,1%
same,activation at 1 µM,[1]; 1000 nM,10%
same,activation at 10 µM,[1]; 10000 nM,39%
NCC1c2nc(Cl)ccc2OC12CC2 (stereo not shown) [Example 81],activation at 0.1 µM,[1]; 100 nM,48%
same,activation at 1 µM,[1]; 1000 nM,86%
same,activation at 10 µM,[1]; 10000 nM,95%
C[C@@H](N)[C@H]1c2ncccc2O[C@@H]1C [Example 56],TAAR1 agonist activity at each concentration (%),[1]; 100 nM,23%
same,TAAR1 agonist activity at each concentration (%),[1]; 1000 nM,67%
same,TAAR1 agonist activity at each concentration (%),[1]; 10000 nM,82%
"NC[C@H]1c2ncccc2O[C@H]2CCCC[C@@H]21 (racemic) [Example 33, rac-1-[(5aS,9aR,10S)-6,7,8,9,9a,10-hexahydro-5aH-[1]benzpyrano[3,2-b]pyridine-10-yl]methanamine dihydrochloride]",activation at 0.1 µM,[1]; 100 nM,4%
same,activation at 1 µM,[1]; 1000 nM,22%
same,activation at 10 µM,[1]; 10000 nM,52%
C[C@@H]1Oc2cccnc2[C@H]1CN [Example 19],activation at 0.1 µM,[1]; 100 nM,2%
same,activation at 1 µM,[1]; 1000 nM,13%
same,activation at 10 µM,[1]; 10000 nM,51%
"[2H][C@]1(C)Oc2cccnc2[C@H]1CN (relative stereo) [Example 95, rel-1-[(2R,3S)-2-methyl(2-^2H)-2,3-dihydrofuro[3,2-b]pyridin-3-yl]methanamine dihydrochloride]",activation at 0.1 µM,[1]; 100 nM,59%
same,activation at 1 µM,[1]; 1000 nM,90%
same,activation at 10 µM,[1]; 10000 nM,96%
C[C@@H]1[C@H](C)Oc2cccnc2[C@H]1CN (racemic) [Example 65],activation at 0.1 µM,[1]; 100 nM,0%
same,activation at 1 µM,[1]; 1000 nM,28%
same,activation at 10 µM,[1]; 10000 nM,67%
"CC[C@H]1Oc2cccnc2[C@@H]1CN (stereo in doubt) [Example 43, rel-1-[(2R,3S)-2-ethyl-2,3-dihydrofuro[3,2-b]pyridin-3-yl]methanamine dihydrochloride]",activation at 0.1 µM,[1]; 100 nM,0%
same,activation at 1 µM,[1]; 1000 nM,0%
same,activation at 10 µM,[1]; 10000 nM,7%
